In US20260116868A1 (Arcus Biosciences, Inc., priority 2023, published 2026):
Read-outs that look alike come from different tables or passages of the source.

Tests used:
Jurkat cells = experiment: IL-2 secretion assay in Jurkat cells activated with CD3/CD28 T Cell Activator; format: cell-based; conditions: Homo sapiens, 24 h, read-out: IL-2 Secretion (EC50)
Method in brief: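 Jurkat cells in Opti-MEM were preincubated 1 h at 37° C with compound (final 10 μM to 300 pM, 16-point 1:2 dilution), then activated with human CD3/CD28 T Cell Activator for 24 h at 37° C. Supernatant IL-2 measured by AlphaLISA; EC50 from 4-parameter logistic fit.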

Cbl-b = molecular target: T1, Cbl-b (Homo sapiens, UniProt Q13191); experiment: Cbl-b probe displacement HTRF binding assay; conditions: 0.4 nM Cbl-b, 150 nM BODIPY probe
T1 construct: biotin (biotinylated protein)
T1 sequence (Q13191 whole entry, species assumed): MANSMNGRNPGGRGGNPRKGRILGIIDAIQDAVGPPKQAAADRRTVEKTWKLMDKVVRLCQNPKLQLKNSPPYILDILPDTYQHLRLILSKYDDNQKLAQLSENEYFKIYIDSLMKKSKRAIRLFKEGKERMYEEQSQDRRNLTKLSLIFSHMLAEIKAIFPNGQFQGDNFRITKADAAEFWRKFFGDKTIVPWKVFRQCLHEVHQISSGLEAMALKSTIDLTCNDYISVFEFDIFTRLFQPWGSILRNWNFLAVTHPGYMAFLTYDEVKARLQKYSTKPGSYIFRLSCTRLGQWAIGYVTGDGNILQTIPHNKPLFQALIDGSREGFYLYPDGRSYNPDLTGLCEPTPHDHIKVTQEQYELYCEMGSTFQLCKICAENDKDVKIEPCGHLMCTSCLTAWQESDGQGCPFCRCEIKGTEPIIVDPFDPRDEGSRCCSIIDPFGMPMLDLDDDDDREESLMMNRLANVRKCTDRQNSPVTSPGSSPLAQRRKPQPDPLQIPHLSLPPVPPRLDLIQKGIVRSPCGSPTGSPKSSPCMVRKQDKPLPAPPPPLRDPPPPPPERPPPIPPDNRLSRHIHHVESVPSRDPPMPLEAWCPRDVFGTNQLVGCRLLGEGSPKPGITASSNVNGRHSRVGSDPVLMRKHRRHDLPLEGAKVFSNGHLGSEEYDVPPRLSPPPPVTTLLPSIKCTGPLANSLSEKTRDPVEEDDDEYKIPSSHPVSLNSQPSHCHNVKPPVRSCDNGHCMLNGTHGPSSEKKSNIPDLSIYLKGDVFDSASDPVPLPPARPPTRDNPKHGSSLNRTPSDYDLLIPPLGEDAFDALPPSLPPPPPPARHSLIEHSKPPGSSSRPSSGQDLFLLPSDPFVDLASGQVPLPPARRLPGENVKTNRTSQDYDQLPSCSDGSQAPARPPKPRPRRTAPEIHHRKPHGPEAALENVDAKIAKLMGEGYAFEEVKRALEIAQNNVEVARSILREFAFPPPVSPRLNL
Method in brief: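 Binding IC50 from four-parameter fit of HTRF signal loss, normalised to DMSO (0%) and no-protein (100%) wells. Biotinylated Cbl-b 0.4 nM was preincubated 60 min with compound (20-point 1:2 dilution) before 15 min with 150 nM BODIPY probe; Tb-streptavidin detection.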

[1] = Jurkat cells, CD3/CD28 T Cell Activator, IL-2 AlphaLISA

Row | SMILES | EC50 (Jurkat cells; [1]) | IC50 (Cbl-b) | EC50 (Jurkat cells; Jurkat)
1 | COCCNCc1cc(C(=O)Nc2cc(-c3ccc(F)cc3-n3cc(CF)nn3)cc(C3CC3)n2)c(=O)n(C2CC2)c1 [Example 73, 1-Cyclopropyl-N-[6-cyclopropyl-4-[4-fluoro-2-[4-(fluoromethyl)triazol-1-yl]phenyl]pyridin-2-yl]-5-[(2-methoxyethylamino)methyl]-2-oxopyridine-3-carboxamide] | 1000 to 5000 nM | 100 to 1000 nM | 
2 | Cc1ccnnc1-c1cc(F)ccc1-c1cc(NC(=O)c2cc(CN3CCO[C@H](C)C3)cn(C3CC3)c2=O)nc(C2CC2)c1 [Example 74, 1-cyclopropyl-N-[6-cyclopropyl-4-[4-fluoro-2-(4-methylpyridazin-3-yl)phenyl]pyridin-2-yl]-5-[[(2R)-2-methylmorpholin-4-yl]methyl]-2-oxopyridine-3-carboxamide] | 1000 to 5000 nM | 100 to 1000 nM | 
3 | Cc1cccnc1-c1cc(C#N)ccc1-c1cc(NC(=O)c2cc(CN3CCO[C@H](C)C3)cn(C3CC3)c2=O)nc(C2CC2)c1 [Example 75, N-[4-[4-cyano-2-(3-methylpyridin-2-yl)phenyl]-6-cyclopropylpyridin-2-yl]-1-cyclopropyl-5-[[(2R)-2-methylmorpholin-4-yl]methyl]-2-oxopyridine-3-carboxamide] | 1000 to 5000 nM | 100 to 1000 nM | 
4 | C[C@H]1CCCN(Cc2cc(C(=O)Nc3cccc(C4(c5nncn5C)CC(F)(F)C4)c3)c(=O)n(C3CC3)c2)C1 [Example 79, 1-cyclopropyl-N-[3-[3,3-difluoro-1-(4-methyl-1,2,4-triazol-3-yl)cyclobutyl]phenyl]-5-[[(3S)-3-methylpiperidin-1-yl]methyl]-2-oxopyridine-3-carboxamide] | 100 to 1000 nM | 100 to 1000 nM | 
5 | CO[C@H]1C[C@@](c2cccc(NC(=O)c3cc(CN4CCC[C@H](C)C4)cn(C4CC4)c3=O)c2)(c2nncn2C)C1 [Example 80, 1-cyclopropyl-N-[3-[3-methoxy-1-(4-methyl-1,2,4-triazol-3-yl)cyclobutyl]phenyl]-5-[[(3S)-3-methylpiperidin-1-yl]methyl]-2-oxopyridine-3-carboxamide] | 100 to 1000 nM | 100 to 1000 nM | 
6 | CO[C@H]1C[C@](c2cccc(NC(=O)c3cc(CN4CCC[C@H](C)C4)cn(C4CC4)c3=O)c2)(c2nncn2C)C1 [Example 81, 1-cyclopropyl-N-[3-[3-methoxy-1-(4-methyl-1,2,4-triazol-3-yl)cyclobutyl]phenyl]-5-[[(3S)-3-methylpiperidin-1-yl]methyl]-2-oxopyridine-3-carboxamide] | 100 to 1000 nM | 100 to 1000 nM | 
7 | CO[C@@H](C)CNCc1cc(C(=O)Nc2cc(-c3ccc(C#N)cc3C(=O)N3CC(F)(F)C3)cc(C3CC3)n2)c(=O)n(C2CC2)c1 [Example 95, N-(4-{4-cyano-2-[(3,3-difluoro-1-azetidinyl)carbonyl]phenyl}-6-cyclopropyl-2-pyridyl)-5-{[(S)-2-methoxypropylamino]methyl}-1-cyclopropyl-2-oxo-1,2-dihydronicotinamide] | < 100 nM | < 100 nM | 
8 | CO[C@@H](C)CNCc1cc(C(=O)Nc2cc(-c3c(F)cc(Cl)cc3C(=O)N3CC(F)(F)C3)cc(C3CC3)n2)c(=O)n(C2CC2)c1 [Example 102, N-[4-[4-chloro-2-(3,3-difluoroazetidine-1-carbonyl)-6-fluorophenyl]-6-cyclopropylpyridin-2-yl]-1-cyclopropyl-5-[[[(2S)-2-methoxypropyl]amino]methyl]-2-oxopyridine-3-carboxamide] | < 100 nM | < 100 nM | 
9 | CO[C@@H](C)CNCc1cc(C(=O)Nc2cc(-c3ccc(Cl)cc3C(=O)N3CC(F)(F)C3)cc(C3CC3)n2)c(=O)n(C)c1 [Example 105, N-[4-[4-chloro-2-(3,3-difluoroazetidine-1-carbonyl)phenyl]-6-cyclopropylpyridin-2-yl]-5-[[[(2S)-2-methoxypropyl]amino]methyl]-1-methyl-2-oxopyridine-3-carboxamide] | < 100 nM | < 100 nM | 
10 | CC(C)CNCc1cc(C(=O)Nc2cc(-c3ccc(Cl)cc3C(=O)N3CC(F)(F)C3)cc(C3CC3)n2)c(=O)n(C)c1 [Example 106, N-[4-[4-chloro-2-(3,3-difluoroazetidine-1-carbonyl)phenyl]-6-cyclopropylpyridin-2-yl]-1-methyl-5-[(2-methylpropylamino)methyl]-2-oxopyridine-3-carboxamide] | < 100 nM | < 100 nM | 
11 | Cn1cc(CNC[C@@H]2CCCO2)cc(C(=O)Nc2cc(-c3ccc(Cl)cc3C(=O)N3CC(F)(F)C3)cc(C3CC3)n2)c1=O [Example 107, N-[4-[4-chloro-2-(3,3-difluoroazetidine-1-carbonyl)phenyl]-6-cyclopropylpyridin-2-yl]-1-methyl-2-oxo-5-[[[(2S)-oxolan-2-yl]methylamino]methyl]pyridine-3-carboxamide] | < 100 nM | < 100 nM | 
12 | CC(C)CNCc1cc(C(=O)Nc2cc(-c3c(F)cc(Cl)cc3C(=O)N3CC(F)(F)C3)cc(C3CC3)n2)c(=O)n(C2CC2)c1 [Example 144, N-(4-{4-chloro-2-[(3,3-difluoro-1-azetidinyl)carbonyl]-6-fluorophenyl}-6-cyclopropyl-2-pyridyl)-1-cyclopropyl-5-[(isobutylamino)methyl]-2-oxo-1,2-dihydronicotinamide] |  | < 100 nM | < 100 nM
13 | CO[C@H]1CCC[C@@H]1NCc1cc(C(=O)Nc2cc(-c3ccc(C#N)cc3C(=O)N3CC(F)(F)C3)cc(C3CC3)n2)c(=O)n(CC(F)(F)F)c1 [Example 154, N-[4-[4-cyano-2-(3,3-difluoroazetidine-1-carbonyl)phenyl]-6-cyclopropylpyridin-2-yl]-5-[[[(1S,2S)-2-methoxycyclopentyl]amino]methyl]-2-oxo-1-(2,2,2-trifluoroethyl)pyridine-3-carboxamide] | < 100 nM | < 100 nM | 
